From the supplement of paper PMC10307832

Experiments:
Experiment in all cases: relative viability (nuclei count vs DMSO), 5 days (fraction); higher = more cells survive
[1] = compound: CC(C)N(CCCNC(=O)Nc1ccc(C(C)(C)C)cc1)C[C@H]1O[C@@H](n2ccc3c(N)ncnc32)[C@H](O)[C@@H]1O + Cc1cc(Nc2cc(N3CCN(C)CC3)nc(Sc3ccc(NC(=O)C4CC4)cc3)n2)n[nH]1 [Tozasertib] (partner 0.1 µM)
Method in brief: (§1)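 One day after seeding in 1536-well plates, lung cancer cell lines were dosed by pin tool. Dosing was either single-drug or a fixed anchor-drug dose plus five library-drug doses (not always all listed) in √10 steps. After 5 days, nuclei were stained in one fix-and-stain step and counted on 4× images, and relative viability is the nuclei count of treated wells over that of vehicle wells, given as the median of duplicate plates.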

[2] = compound: CC(C)N(CCCNC(=O)Nc1ccc(C(C)(C)C)cc1)C[C@H]1O[C@@H](n2ccc3c(N)ncnc32)[C@H](O)[C@@H]1O + Nc1nc2[nH]cc(CCc3ccc(C(=O)N[C@@H](CCC(=O)O)C(=O)O)cc3)c2c(=O)[nH]1 [Pemetrexed] (partner 0.2 µM)
Method in brief: as §1

Shikonin + Pemetrexed = compound: CC(C)=CC[C@@H](O)C1=CC(=O)c2c(O)ccc(O)c2C1=O [Shikonin] + Nc1nc2[nH]cc(CCc3ccc(C(=O)N[C@@H](CCC(=O)O)C(=O)O)cc3)c2c(=O)[nH]1 [Pemetrexed] (partner 0.2 µM)
Method in brief: as §1

[3] = compound: CC(C)N(CCCNC(=O)Nc1ccc(C(C)(C)C)cc1)C[C@H]1O[C@@H](n2ccc3c(N)ncnc32)[C@H](O)[C@@H]1O + COc1cc2c(Oc3ccc(NC(=O)C4(C(=O)Nc5ccc(F)cc5)CC4)cc3F)ccnc2cc1OCCCN1CCOCC1 [Foretinib] (partner 0.25 µM)
Method in brief: as §1

Cell Line	relative viability ([1]; first compound 0.08 µM)	relative viability ([1]; first compound 0.253 µM)	relative viability ([1]; first compound 0.8 µM)	relative viability ([1]; first compound 2.53 µM)	relative viability ([1]; first compound 8 µM)	relative viability ([2]; first compound 0.08 µM)	relative viability ([2]; first compound 0.253 µM)	relative viability ([2]; first compound 0.8 µM)	relative viability ([2]; first compound 2.53 µM)	relative viability ([2]; first compound 8 µM)	relative viability (Shikonin + Pemetrexed; first compound 0.01 µM)	relative viability (Shikonin + Pemetrexed; first compound 0.1 µM)	relative viability (Shikonin + Pemetrexed; first compound 0.3162 µM)	relative viability (Shikonin + Pemetrexed; first compound 1 µM)	relative viability ([3]; first compound 0.08 µM)	relative viability ([3]; first compound 0.253 µM)	relative viability ([3]; first compound 0.8 µM)	relative viability ([3]; first compound 2.53 µM)	relative viability ([3]; first compound 8 µM)
NCI-H661	0.365	0.345	0.362	0.35	0.37	0.91	0.892	0.894	0.977	0.912	0.944	1.02	0.957	0.729	1.08	1.13	1.09	1.11	1.06
NCI-H2085	0.746	0.78	0.797	0.854	0.716	0.877	0.61	0.899	1.05	0.975	0.88	0.93	0.868	0.872	0.957	1.04	1.1	0.928	1.02
NCI-H2347	0.51	0.492	0.48	0.539	0.654	0.444	0.411	0.439	0.441	0.409	0.471	0.479	0.402	0.44	1.1	0.778	0.865	0.721	0.993
NCI-H1944	0.253	0.261	0.251	0.239	0.246	0.601	0.593	0.552	0.695	0.595	0.625	0.719	0.676	0.572	0.811	0.88	0.958	0.919	0.882
NCI-H1793	0.345		0.356	0.33	0.386	0.77		0.831	0.801	0.767	0.808	1.05	0.798	1.11	0.709		0.677	0.606	0.621
NCI-H647	0.261	0.318		0.416	0.267	0.197	0.164	0.143	0.194	0.176	0.194	0.174	0.183	0.156	1.23	1.27		1.17	1.13
NCI-H596	0.905		0.744	0.97	0.897	0.515	0.465	0.514	0.53	0.493	0.502	0.536	0.414	0.475	0.792		0.846	1.02	0.872
